Data: patent publication US10300051B2, “Cyclopropylamines as LSD1 inhibitors” (priority 2014, dated 2019)
pIC50: −log10 of the molar value.

Molecular target: LSD-1 enzyme (Homo sapiens (Human), UniProt O60341)
Format: biochemical
Settings: 1 nM LSD-1 enzyme, 1 hour preincubation at 25° C., Biotin-labeled Histone H3 peptide substrate
Experimental: Example A: LSD1 Histone Demethylase Biochemical Assay
LANCE LSD1/KDM1A demethylase assay—10 μL of 1 nM LSD-1 enzyme (ENZO BML-SE544-0050) in the assay buffer (50 mM Tris, pH 7.5, 0.01% Tween-20, 25 mM NaCl, 5 mM DTT) were preincubated for 1 hour at 25° C. with 0.8 μL compound/DMSO dotted in black 384 well polystyrene plates. […] Reactions were stopped by addition of 10 μL 1× LANCE Detection Buffer (PerkinElmer CR97-100) supplemented with 1.5 nM Eu-anti-unmodified H3K4 Antibody (PerkinElmer TRF0404), and 225 nM LANCE Ultra Streptavidin (PerkinElmer TRF102) along with 0.9 mM Tranylcypromine-HCl (Millipore 616431). After stopping the reactions plates were incubated for 30 minutes and read on a PHERAstar FS plate reader (BMG Labtech).

**Q.** How did the pIC50 turn out when `O=C(O)CN1CCC(CN[C@@H]2C[C@H]2c2ccccc2)(Cc2ccc(F)cc2)CC1` [Example 13, [4-(4-fluorobenzyl)-4-({[(1R,2S)-2-phenylcyclopropyl]amino}methyl)piperidin-1-yl]acetic] was run?
**A.** The pIC50 was > 7.00.

**Q.** How did the pIC50 turn out when `CN(C)C(=O)CCN1CCC(CN[C@@H]2C[C@H]2c2ccccc2)(Cc2ccc(F)cc2)CC1` [Example 10, 3-[4-(4-fluorobenzyl)-4-({[(1R,2S)-2-phenylcyclopropyl]amino}methyl)piperidin-1-yl]-N,N-dimethylpropanamide] was run?
**A.** The pIC50 was > 7.00.

**Q.** With `Fc1ccc(CC2(CN[C@@H]3C[C@H]3c3ccccc3)CCNCC2)cc1` [Example 11, (1R,2S)—N-{[4-(4-fluorobenzyl)piperidin-4-yl]methyl}-2-phenylcyclopropanamine] as the compound, how does the pIC50 read?
**A.** The pIC50 was > 7.00.

**Q.** With `C[C@@H](N)C(=O)N1CCC(CN[C@@H]2C[C@H]2c2ccccc2)(Cc2ccc(F)cc2)CC1` [Example 15, (1R,2S)—N-{[1-[(2R)-2-aminopropanoyl]-4-(4-fluorobenzyl)piperidin-4-yl]methyl}-2-phenylcyclopropanamine] as the compound, how does the pIC50 read?
**A.** Its pIC50 is > 7.00.

**Q.** How did the pIC50 turn out when `CN(C)C(=O)N1CCC(CC#N)(CN[C@@H]2C[C@H]2c2ccccc2)CC1` (relative stereo) [Example 3, 4-(Cyanomethyl)-N,N-dimethyl-4-{[(trans-2-phenylcyclopropyl)amino]methyl}piperidine-1-carboxamide] was run?
**A.** Its pIC50 is > 7.00.

**Q.** With `O=C(O)CCN1CCC(CN[C@@H]2C[C@H]2c2ccccc2)(COCc2ccccc2)CC1` [Example 40, 3-[4-[(benzyloxy)methyl]-4-({[(1R,2S)-2-phenylcyclopropyl]amino}methyl)piperidin-1-yl]propanoic Acid] as the compound, how does the pIC50 read?
**A.** Its pIC50 is > 7.00.

**Q.** `COCC1(CN[C@@H]2C[C@H]2c2ccccc2)CCNCC1` [Example 21, (1R,2S)—N-{[4-(methoxymethyl)piperidin-4-yl]methyl}-2-phenylcyclopropanamine] was tested. Which pIC50 did it give?
**A.** The pIC50 was > 7.00.

**Q.** How did the pIC50 turn out when `O=C(O)CCN1CCC(CN[C@@H]2C[C@H]2c2ccccc2)(Cc2cccc(OC3CCOCC3)c2)CC1` [Example 36, 3-{4-({[(1R,2S)-2-phenylcyclopropyl]amino}methyl)-4-[3-(tetrahydro-2H-pyran-4-yloxy)benzyl]piperidin-1-yl}propanoic Acid] was run?
**A.** Its pIC50 is > 7.00.

**Q.** `CN(C)CC(=O)N1CCC(CN[C@@H]2C[C@H]2c2ccccc2)(Cc2cccc(C(N)=O)c2)CC1` [Example 58, 3-{[1-[(dimethylamino)acetyl]-4-({[(1R,2S)-2-phenylcyclopropyl]amino}methyl)piperidin-4-yl]methyl}benzamide] was tested. Which pIC50 did it give?
**A.** The pIC50 was > 7.00.

**Q.** How did the pIC50 turn out when `COC(=O)N1CCC(CC#N)(CN[C@@H]2C[C@H]2c2ccccc2)CC1` (relative stereo) [Example 2, Methyl 4-(cyanomethyl)-4-{[(trans-2-phenylcyclopropyl)amino]methyl}piperidine-1-carboxylate] was run?
**A.** The pIC50 was > 7.00.

**Q.** `CC(=O)N1CCC(CC#N)(CN[C@@H]2C[C@H]2c2ccccc2)CC1` (relative stereo) [Example 1, (1-Acetyl-4-{[(trans-2-phenylcyclopropyl)amino]methyl}piperidin-4-yl)acetonitrile] was tested. Which pIC50 did it give?
**A.** Its pIC50 is > 7.00.

**Q.** How did the pIC50 turn out when `O=C(O)CCN1CCC(CN[C@@H]2C[C@H]2c2ccccc2)(COc2ccc(F)cn2)CC1` [Example 45, 3-[4-{[(5-fluoropyridin-2-yl)oxy]methyl}-4-({[(1R,2S)-2-phenylcyclopropyl]amino}methyl)piperidin-1-yl]propanoic Acid] was run?
**A.** Its pIC50 is > 7.00.

**Q.** With `O=C(O)CCN1CCC(CN[C@@H]2C[C@H]2c2ccccc2)(Cc2ccc(F)cc2)CC1` [Example 8, 3-[4-(4-fluorobenzyl)-4-({[(1R,2S)-2-phenylcyclopropyl]amino}methyl)piperidin-1-yl]propanoic Acid] as the compound, how does the pIC50 read?
**A.** The pIC50 was > 7.00.
